Here are results for 24 compounds from patent publication US12570642B2, “GLP-IR modulating compounds” (Gilead Sciences, Inc., priority 2021, dated 2026).

For this experiment, the target named is GLP-1R (Homo sapiens, UniProt P43220). Briefly: GLP-1R Activation - cAMP Assay. It counts as cell-based. Particulars: cAMP increase in CHO cells stably expressing GLP-1R; each compound run on one of the two cAMP assays (Assay 1 or Assay 2, not specified). In outline: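 cAMP rise read by HTRF after 30 min agonist exposure (10-point titration, 37 °C) in HBSS/20 mM Hepes/0.1% BSA, following 1 h pre-incubation. Cells: stable GLP-1R CHO line, 1,000/well, seeded overnight. Sigmoidal fit of response vs log concentration gives EC50.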
Chain of GLP-1R (P43220 24-463): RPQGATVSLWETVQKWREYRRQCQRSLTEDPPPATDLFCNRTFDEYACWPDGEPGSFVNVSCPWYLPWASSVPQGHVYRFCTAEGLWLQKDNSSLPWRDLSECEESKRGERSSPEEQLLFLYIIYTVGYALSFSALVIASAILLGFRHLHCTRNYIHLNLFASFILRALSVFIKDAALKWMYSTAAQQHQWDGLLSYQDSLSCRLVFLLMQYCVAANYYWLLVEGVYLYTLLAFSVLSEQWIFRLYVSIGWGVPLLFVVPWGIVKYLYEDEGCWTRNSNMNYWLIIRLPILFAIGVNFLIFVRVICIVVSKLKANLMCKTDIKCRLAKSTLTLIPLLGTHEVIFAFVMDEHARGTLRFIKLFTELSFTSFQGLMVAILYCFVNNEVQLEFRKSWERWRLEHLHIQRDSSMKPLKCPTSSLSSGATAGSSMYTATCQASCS
(Changes in cAMP serve as a functional read-out for many G protein-coupled receptors.)

One may read the EC50 as the concentration at which the effect is half-maximal.

Regarding `Cc1cc(COc2cccc(-c3cc(F)c(Cc4nc5ccc(C(=O)O)cc5n4[C@@H]4COCC4(C)C)cc3F)n2)c(F)cc1Cl` [Example 450, (S)-2-(4-(6-((4-chloro-2-fluoro-5-methylbenzyl)oxy)pyridin-2-yl)-2,5-difluorobenzyl)-1-(4,4-dimethyltetrahydrofuran-3-yl)-1H-benzo[d]imidazole-6-carboxylic acid], a half-maximal effect (EC50) was put at 1.04 nM. Then `CC1(C)COC[C@H]1n1c(Cc2cc(F)c(-c3ccc(F)c(OCc4ccc(C#N)cc4)n3)cc2F)nc2ccc(C(=O)O)nc21` [Example 396, (S)-2-(4-(6-((4-cyanobenzyl)oxy)-5-fluoropyridin-2-yl)-2,5-difluorobenzyl)-3-(4,4-dimethyltetrahydrofuran-3-yl)-3H-imidazo[4,5-b]pyridine-5-carboxylic acid], with 0.157 nM; and `COCCn1c(Cc2cc(F)c(-c3ccc(F)c(OCc4cnc(-n5ccnn5)cc4Cl)c3)cc2F)nc2ccc(C(=O)O)cc21` [Example 390, 2-((3′-((4-chloro-6-(1H-1,2,3-triazol-1-yl)pyridin-3-yl)methoxy)-2,4′,5-trifluoro-[1,1′-biphenyl]-4-yl)methyl)-1-(2-methoxyethyl)-1H-benzo[d]imidazole-6-carboxylic acid], with 3.12 nM.

In the case of `COc1cc(Cl)ncc1COc1nc(-c2ccc(Cc3nc4c(F)cc(C(=O)O)cc4n3[C@@H]3COCC3(C)C)c(F)c2)ccc1F` [Example 324, (S)-2-(4-(6-((6-chloro-4-methoxypyridin-3-yl)methoxy)-5-fluoropyridin-2-yl)-2-fluorobenzyl)-1-(4,4-dimethyltetrahydrofuran-3-yl)-4-fluoro-1H-benzo[d]imidazole-6-carboxylic acid], a half-maximal effect (EC50) was put at 0.049 nM. Consider `Cc1cc(F)c(COc2cccc(-c3cc(F)c(Cc4nc5ccc(C(=O)O)cc5n4[C@@H]4COCC4(C)C)cc3F)n2)cc1F` [Example 456, (S)-2-(4-(6-((2,5-difluoro-4-methylbenzyl)oxy)pyridin-2-yl)-2,5-difluorobenzyl)-1-(4,4-dimethyltetrahydrofuran-3-yl)-1H-benzo[d]imidazole-6-carboxylic acid], for which the EC50 worked out at 0.332 nM.

On to `CNC(=O)[C@@H]1COC[C@@H]1n1c(Cc2cc(F)c(-c3cccc(OCc4ccc(C#N)cc4F)n3)cc2F)nc2ccc(C(=O)O)cc21` (racemic) [Example 75, 2-(4-(6-((4-cyano-2-fluorobenzyl)oxy)pyridin-2-yl)-2,5-difluorobenzyl)-1-((3R,4S)-4-(methylcarbamoyl)tetrahydrofuran-3-yl)-1H-benzo[d]imidazole-6-carboxylic Acid], for which the EC50 came out at 15.6 nM. `COCCn1c(Cc2cc(F)c(-c3cccc(OCc4cnc(-c5cnn(C(F)F)c5)cn4)n3)cc2F)nc2ccc(C(=O)O)cc21` [Example 36] registered an EC50 of 1.04 nM. `C[C@H]1COC[C@H]1n1c(Cc2cc(F)c(-c3ccnc(OCc4ccc(Cl)cc4F)n3)cc2F)nc2ccc(C(=O)O)cc21` [Example 484, 2-(4-(2-((4-chloro-2-fluorobenzyl)oxy)pyrimidin-4-yl)-2,5-difluorobenzyl)-1-((3S,4R)-4-methyltetrahydrofuran-3-yl)-1H-benzo[d]imidazole-6-carboxylic acid] returned an EC50 of 0.155 nM. `CC1(C)COC[C@H]1n1c(Cc2c(F)cc(-c3cccc(OCc4ccc(C#N)cc4)n3)c(F)c2F)nc2ccc(C(=O)O)cc21` [Example 245, (S)-2-(4-(6-((4-cyanobenzyl)oxy)pyridin-2-yl)-2,3,6-trifluorobenzyl)-1-(4,4-dimethyltetrahydrofuran-3-yl)-1H-benzo[d]imidazole-6-carboxylic acid] came in with an EC50 of 0.051 nM. Consider `COc1cnccc1COc1cccc(-c2cc(F)c(Cc3nc4ccc(C(=O)O)cc4n3[C@@H]3COCC3(C)C)cc2F)n1` [Example 430, (S)-2-(2,5-difluoro-4-(6-((3-methoxypyridin-4-yl)methoxy)pyridin-2-yl)benzyl)-1-(4,4-dimethyltetrahydrofuran-3-yl)-1H-benzo[d]imidazole-6-carboxylic acid], for which the EC50 stood at 0.02 nM. As for `CC1(C)COC[C@H]1n1c(Cc2cc(F)c(-c3cccc(OCc4c(F)cc(F)cc4F)n3)cc2F)nc2ccc(C(=O)O)cc21` [Example 458, (S)-2-(2,5-difluoro-4-(6-((2,4,6-trifluorobenzyl)oxy)pyridin-2-yl)benzyl)-1-(4,4-dimethyltetrahydrofuran-3-yl)-1H-benzo[d]imidazole-6-carboxylic acid], the EC50 was determined as 0.315 nM. For `COc1cc(Cl)ncc1COc1nc(-c2cc(Cl)c(Cc3nc4ccc(C(=O)O)cc4n3[C@@H]3COCC3(C)C)cc2C)ccc1F` [Example 323, (S)-2-(2-chloro-4-(6-((6-chloro-4-methoxypyridin-3-yl)methoxy)-5-fluoropyridin-2-yl)-5-methylbenzyl)-1-(4,4-dimethyltetrahydrofuran-3-yl)-1H-benzo[d]imidazole-6-carboxylic acid], the response was half-maximal at 0.734 nM (EC50). Compound `N#Cc1ccc(COc2cccc(-c3cc(F)c(Cc4nc5ccc(C(=O)O)cc5n4[C@H]4C[C@H]5CO[C@@H]4C5)cc3F)n2)c(F)c1` [Example 71, 1-((1R,4R,6S)-2-oxabicyclo[2.2.1]heptan-6-yl)-2-(4-(6-((4-cyano-2-fluorobenzyl)oxy)pyridin-2-yl)-2,5-difluorobenzyl)-1H-benzo[d]imidazole-6-carboxylic Acid] yielded an EC50 of 1.19 nM. Compared with the last compound, the EC50 is about 1.6-fold higher. Take `CC1(C)COC[C@H]1n1c(Cc2cc(F)c(-c3cccc(OCc4ccc5c(c4)CN(S(C)(=O)=O)C5)n3)cc2F)nc2ccc(C(=O)O)cc21` [Example 248, (S)-2-(2,5-difluoro-4-(6-((2-(methylsulfonyl)isoindolin-5-yl)methoxy)pyridin-2-yl)benzyl)-1-(4,4-dimethyltetrahydrofuran-3-yl)-1H-benzo[d]imidazole-6-carboxylic acid]: the midpoint of the response, the EC50, lay at 0.186 nM. This EC50 lies about 6.4-fold lower than the previous one. For `C[C@H]1COC[C@H]1n1c(Cc2cc(F)c(-c3cccc(OCc4ccc(C#N)cc4F)n3)cc2F)nc2ccc(C(=O)O)cc21` [Example 494, 2-(4-(6-((4-cyano-2-fluorobenzyl)oxy)pyridin-2-yl)-2,5-difluorobenzyl)-1-((3S,4R)-4-methyltetrahydrofuran-3-yl)-1H-benzo[d]imidazole-6-carboxylic acid], the concentration giving a half-maximal response (EC50) was 0.051 nM. This EC50 is about 3.6-fold lower than that of the compound before.

The compound `N#Cc1ccc(COc2cccc(-c3cc(F)c(Cc4nc5ccc(C(=O)O)cc5n4[C@H]4COC[C@H]4C4CC4)cc3F)n2)c(F)c1` [Example 192, 2-(4-(6-((4-cyano-2-fluorobenzyl)oxy)pyridin-2-yl)-2,5-difluorobenzyl)-1-((3R,4S)-4-cyclopropyltetrahydrofuran-3-yl)-1H-benzo[d]imidazole-6-carboxylic acid] yielded an EC50 of 0.444 nM. Consider `CC1(C)COC[C@H]1n1c(Cc2cc(F)c(-c3ccc(F)c(OCc4ccc(-n5ccnn5)cc4)n3)cc2F)nc2c(F)cc(C(=O)O)cc21` [Example 177, (S)-2-(4-(6-((4-(1H-1,2,3-triazol-1-yl)benzyl)oxy)-5-fluoropyridin-2-yl)-2,5-difluorobenzyl)-1-(4,4-dimethyltetrahydrofuran-3-yl)-4-fluoro-1H-benzo[d]imidazole-6-carboxylic Acid], for which the EC50 was determined as 0.021 nM. Then `CC1(C)COC[C@H]1n1c(Cc2cc(F)c(-c3ccc(F)c(OCc4ccc(Cl)cc4)n3)cc2F)nc2ccc(C(=O)O)cc21` [Example 299, (S)-2-(4-(6-((4-chlorobenzyl)oxy)-5-fluoropyridin-2-yl)-2,5-difluorobenzyl)-1-(4,4-dimethyltetrahydrofuran-3-yl)-1H-benzo[d]imidazole-6-carboxylic acid], with 0.342 nM.

In the case of `Cc1cc(Cc2nc3c(F)cc(C(=O)O)cc3n2[C@@H]2COCC2(C)C)c(Cl)cc1-c1ccnc(OCc2ccc(Cl)cc2F)n1` [Example 317, (S)-2-(2-chloro-4-(2-((4-chloro-2-fluorobenzyl)oxy)pyrimidin-4-yl)-5-methylbenzyl)-1-(4,4-dimethyltetrahydrofuran-3-yl)-4-fluoro-1H-benzo[d]imidazole-6-carboxylic acid], the response was half-maximal at 0.451 nM (EC50). Regarding `CS(=O)(=O)N1Cc2ccc(COc3cccc(-c4cc(F)c(Cc5nc6c(F)cc(C(=O)O)cc6n5C[C@@H]5CCO5)cc4F)n3)cc2C1` [Example 517, (S)-2-(2,5-difluoro-4-(6-((2-(methylsulfonyl)isoindolin-5-yl)methoxy)pyridin-2-yl)benzyl)-4-fluoro-1-(oxetan-2-ylmethyl)-1H-benzo[d]imidazole-6-carboxylic acid], a half-maximal effect (EC50) was put at 0.024 nM. In the case of `CC1(C)COC[C@H]1n1c(Cc2cc(F)c(-c3ccnc(OCc4ccc(C#N)cc4)n3)cc2F)nc2c(F)cc(C(=O)O)cc21` [Example 194, (S)-2-(4-(2-((4-cyanobenzyl)oxy)pyrimidin-4-yl)-2,5-difluorobenzyl)-1-(4,4-dimethyltetrahydrofuran-3-yl)-4-fluoro-1H-benzo[d]imidazole-6-carboxylic acid], the EC50 is 0.265 nM. Take `COC[C@H]1COC[C@H]1n1c(Cc2cc(F)c(-c3cccc(OCc4ccc(C(F)(F)F)cc4)n3)cc2F)nc2ccc(C(=O)O)cc21` [Example 556, 2-(2,5-difluoro-4-(6-((4-(trifluoromethyl)benzyl)oxy)pyridin-2-yl)benzyl)-1-((3S,4S)-4-(methoxymethyl)tetrahydrofuran-3-yl)-1H-benzo[d]imidazole-6-carboxylic acid]: the midpoint of the response, the EC50, lay at 0.262 nM.

Regarding `Cc1cc(Cc2nc3ccc(C(=O)O)cc3n2[C@@H]2COCC2(C)C)c(F)cc1-c1ccnc(OCc2ccc(C#N)cc2)n1` [Example 178, (S)-2-(4-(2-((4-cyanobenzyl)oxy)pyrimidin-4-yl)-2-fluoro-5-methylbenzyl)-1-(4,4-dimethyltetrahydrofuran-3-yl)-1H-benzo[d]imidazole-6-carboxylic Acid], the EC50 is 0.499 nM. Take `CO[C@H](C)[C@@H](C)n1c(Cc2cc(F)c(-c3cccc(OCc4ccc(Cl)cc4F)n3)cc2F)nc2ccc(C(=O)O)cc21` [Example 565, 2-(4-(6-((4-chloro-2-fluorobenzyl)oxy)pyridin-2-yl)-2,5-difluorobenzyl)-1-((2R,3R)-3-methoxybutan-2-yl)-1H-benzo[d]imidazole-6-carboxylic acid]: the EC50 turned out to be 0.194 nM. This EC50 lies about 2.6-fold lower than the previous one.
